Measurements as given in patent US20220009931A1, “NOVEL UREA 6,7-DIHYDRO-4H-PYRAZOLO[1,5-A]PYRAZINES ACTIVE AGAINST THE HEPATITIS B VIRUS (HBV)” (AICURIS GMBH & CO. KG, priority 2018, published 2022).

System: HBV
Conditions: Hepatitis B virus, HePAD38, 144 h, read-out: Cell Activity

`O=C(Nc1ccc(F)c(Cl)c1)N1CCn2nc(N[C@H]3C[C@H](O)C3)cc2C1` [Example 36, N-(3-chloro-4-fluorophenyl)-2-{[(1r,3r)-3-hydroxycyclobutyl]amino}-4H,5H,6H,7H-pyrazolo[1,5-a]pyrazine-5-carboxamide] and `O=C(Nc1ccc(F)c(Cl)c1)N1CCn2nc(NC3CCOC3)cc2C1` (stereo not shown) [Example 1, N-(3-chloro-4-fluorophenyl)-2-[(oxolan-3-yl)amino]-4H,5H,6H,7H-pyrazolo[1,5-a]pyrazine-5-carboxamide] fall in the same range of EC50: 1 to 10 µM for the first, 1 to 10 µM for the second.

First: CC(C)OC1(CNc2cc3n(n2)CCN(C(=O)Nc2ccc(F)c(Cl)c2)C3)CCC1 [Example 24, N-(3-chloro-4-fluorophenyl)-2-({[1-(propan-2-yloxy)cyclobutyl]methyl}amino)-4H,5H,6H,7H-pyrazolo[1,5-a]pyrazine-5-carboxamide]
Second: COCC1(CNc2cc3n(n2)CCN(C(=O)Nc2ccc(F)c(Cl)c2)C3)CC1 [Example 15, N-(3-chloro-4-fluorophenyl)-2-({[1-(methoxymethyl)cyclopropyl]methyl}amino)-4H,5H,6H,7H-pyrazolo[1,5-a]pyrazine-5-carboxamide]
The EC50 of the first is higher: 1 to 10 µM for the first, under 1 µM for the second.

`O=C(Nc1ccc(F)c(Cl)c1)N1CCn2nc(NC3(CO)CCC3)cc2C1` [Example 32, N-(3-chloro-4-fluorophenyl)-2-{[1-(hydroxymethyl)cyclobutyl]amino}-4H,5H,6H,7H-pyrazolo[1,5-a]pyrazine-5-carboxamide] and `COCC1(S(=O)(=O)Nc2cc3n(n2)CCN(C(=O)Nc2ccc(F)c(Cl)c2)C3)CC1` [Example 11, N-(3-chloro-4-fluorophenyl)-2-[1-(methoxymethyl)cyclopropanesulfonamido]-4H,5H,6H,7H-pyrazolo[1,5-a]pyrazine-5-carboxamide] cannot be ordered by EC50: under 1 µM for the first, under 1 µM for the second.

Compared with `CCC(C)(CO)CNc1cc2n(n1)CCN(C(=O)Nc1ccc(F)c(Cl)c1)C2` (stereo not shown) [Example 22, N-(3-chloro-4-fluorophenyl)-2-[(2-ethyl-3-hydroxy-2-methylpropyl)amino]-4H,5H,6H,7H-pyrazolo[1,5-a]pyrazine-5-carboxamide], `O=C(Nc1ccc(F)c(Cl)c1)N1CCn2nc(NCC3CCCOC3)cc2C1` (stereo not shown) [Example 16, N-(3-chloro-4-fluorophenyl)-2-{[(oxan-3-yl)methyl]amino}-4H,5H,6H,7H-pyrazolo[1,5-a]pyrazine-5-carboxamide] is higher in EC50: under 1 µM for the first, 1 to 10 µM for the second.

`O=C(Nc1cc2n(n1)CCN(C(=O)Nc1ccc(F)c(Cl)c1)C2)C1CCOCC1` [Example 8, N-(3-chloro-4-fluorophenyl)-2-(oxane-4-amido)-4H,5H,6H,7H-pyrazolo[1,5-a]pyrazine-5-carboxamide] and `COC(=O)N1CCC(C(=O)Nc2cc3n(n2)CCN(C(=O)Nc2ccc(F)c(Cl)c2)C3)CC1` [Example 30, methyl 4-({5-[(3-chloro-4-fluorophenyl)carbamoyl]-4H,5H,6H,7H-pyrazolo[1,5-a]pyrazin-2-yl}carbamoyl)piperidine-1-carboxylate] cannot be ordered by EC50: under 1 µM for the first, under 1 µM for the second.
